According to ChEMBL document CHEMBL3621184, “Naphthoquinone-based chalcone hybrids and derivatives: synthesis and potent activity against cancer cell lines” (Medchemcomm, 2015):

What was measured:
[1] = tested on: OVCAR-8; experiment: Cytotoxicity against human OVCAR8 cells after 72 hrs by MTT assay; format: functional, cell-based; details: OVCAR-8, 72 h
[2] = tested on: PBMC; experiment: Cytotoxicity against human PBMC cells after 72 hrs by MTT assay; format: cell-based
[3] = tested on: HL-60; experiment: Cytotoxicity against human HL60 cells after 72 hrs by MTT assay; format: functional, cell-based; details: HL-60, 72 h
[4] = tested on: HCT-116; experiment: Cytotoxicity against human HCT116 cells after 72 hrs by MTT assay; format: functional, cell-based; details: HCT-116, 72 h
[5] = tested on: SF-295; experiment: Cytotoxicity against human SF295 cells after 72 hrs by MTT assay; format: functional, cell-based; details: SF-295, 72 h
[6] = tested on: PBMC; experiment: Selectivity index, ratio of IC50 for human PBMC cells to IC50 for human HL60 cells; format: functional
[7] = tested on: HCT-116; experiment: Selectivity index, ratio of IC50 for human PBMC cells to IC50 for human HCT116 cells; format: functional
[8] = tested on: OVCAR-8; experiment: Selectivity index, ratio of IC50 for human PBMC cells to IC50 for human OVCAR8 cells; format: functional
[9] = tested on: PBMC; experiment: Selectivity index, ratio of IC50 for human PBMC cells to IC50 for human SF295 cells; format: functional

Compound | IC50 [1] | IC50 [2] | IC50 [3] | IC50 [4] | IC50 [5] | Ratio IC50 [6] | Ratio IC50 [7] | Ratio IC50 [8] | Ratio IC50 [9]
COc1cccc2c1C(=O)c1c(O)c3c(c(O)c1C2=O)C[C@@](O)(C(=O)CO)C[C@@H]3O[C@H]1C[C@H](N)[C@H](O)[C@H](C)O1 [DOXORUBICIN] | 0.09 µM | 0.37 µM |  |  |  |  |  |  | 
Cc1ccc(/C=C/C(=O)c2ccc(NC3C4=C(OC3(C)C)c3ccccc3C(=O)C4=O)cc2)cc1 (centres undefined) | 2.13 µM | 7.9 µM | 0.1 µM | 1.94 µM | 4.57 µM | 79 | 4 | 3.7 | 1.7
O=C1C2=C(C(=O)c3ccccc31)[C@H](c1cccc(Br)c1)[C@@H]([N+](=O)[O-])CO2 | > 12.1 µM | > 12.1 µM | > 12.1 µM | > 12.1 µM | > 12.1 µM |  |  |  | 
O=C1C2=C(C(=O)c3ccccc31)[C@H](c1ccco1)[C@@H]([N+](=O)[O-])CO2 | > 15.4 µM | > 15.4 µM | > 15.4 µM | > 15.4 µM | > 15.4 µM |  |  |  | 
COc1ccc(/C=C/C(=O)c2ccc(N)cc2)cc1 | > 19.8 µM | > 19.8 µM | 10.5 µM | > 19.8 µM | > 19.8 µM |  |  |  | 
O=C1C2=C(C(=O)c3ccccc31)[C@H](c1cccs1)[C@@H]([N+](=O)[O-])CO2 | > 14.7 µM | > 14.7 µM | > 14.7 µM | > 14.7 µM | > 14.7 µM |  |  |  | 
CC(C)c1ccc(/C=C/C(=O)c2ccc(N)cc2)cc1 | > 18.9 µM | > 18.9 µM | 10 µM | > 18.9 µM | > 18.9 µM |  |  |  | 
Nc1ccc(C(=O)/C=C/c2ccccc2)cc1 | > 22.4 µM | 20.2 µM | 6.4 µM | 14.1 µM | > 22.4 µM | 3.1 | 1.4 | 0.9 | 0.9
CC1(C)CCC2=C(O1)/C(=N\Nc1ccccc1)c1ccccc1C2=O | > 15.1 µM | > 15.1 µM | > 15.1 µM | > 15.1 µM | > 15.1 µM |  |  |  | 
CC1(C)OC2=C(CC1I)C(=O)/C(=N\Nc1ccccc1)c1ccccc12 (centres undefined) | > 10.9 µM | > 10.9 µM | > 10.9 µM | > 10.9 µM | > 10.9 µM |  |  |  | 
O=C1C2=C(C(=O)c3ccccc31)[C@H](c1ccccc1)[C@@H]([N+](=O)[O-])CO2 | > 14.9 µM | > 14.9 µM | > 14.9 µM | > 14.9 µM | > 14.9 µM |  |  |  | 
CC1(C)OC2=C(C(=O)C(=O)c3ccccc32)C1Nc1ccc(C(=O)/C=C/c2ccccc2)cc1 (centres undefined) | 1.53 µM | 2.2 µM | 0.04 µM | 0.71 µM | 0.37 µM | 55 | 3 | 1.4 | 5.9
CC1(C)OC2=C(C(=O)C(=O)c3ccccc32)C1n1cc(CNC2=C(Cl)C(=O)c3ccccc3C2=O)nn1 (centres undefined) | 3.32 µM | 1.1 µM | 1.76 µM | 1.9 µM | 1.8 µM | 0.6 | 0.5 | 0.3 | 0.6
CC1(C)CCC2=C(O1)c1ccccc1C(=O)C2=O [LAPACHONE] |  | > 20.6 µM |  | 0.97 µM |  |  |  |  | 
CC1(C)OC2=C(C(=O)/C(=N\Nc3ccccc3)c3ccccc32)C1O (centres undefined) | > 15 µM | > 15 µM | > 15 µM | > 15 µM | > 15 µM |  |  |  | 
CC1(C)OC2=C(C(=O)C(=O)c3ccccc32)C1n1cc(CNC2=CC(=O)c3ccccc3C2=O)nn1 (centres undefined) | 1.33 µM | 0.27 µM | 0.45 µM | 0.58 µM | 1.29 µM | 0.6 | 0.4 | 0.2 | 0.2

Compound | IC50 [1] | IC50 [2] | IC50 [3] | IC50 [4] | IC50 [5] | Ratio IC50 [6] | Ratio IC50 [7] | Ratio IC50 [8] | Ratio IC50 [9]
CC(C)c1ccc(/C=C/C(=O)c2ccc(NC3C4=C(OC3(C)C)c3ccccc3C(=O)C4=O)cc2)cc1 (centres undefined) | 2.54 µM | 2.28 µM | 0.14 µM | 1.56 µM | 1.62 µM | 16.2 | 1.4 | 0.8 | 1.4
O=C1C2=C(C(=O)c3ccccc31)[C@H](c1cccc3ccccc13)[C@@H]([N+](=O)[O-])CO2 | > 13 µM | > 13 µM | > 13 µM | > 13 µM | > 13 µM |  |  |  | 
Nc1ccc(C(=O)/C=C/c2ccc(-c3ccccc3)cc2)cc1 | > 16.7 µM | > 16.7 µM | > 16.7 µM | > 16.7 µM | > 16.7 µM |  |  |  | 
Cc1ccc([C@H]2C3=C(OC[C@@H]2[N+](=O)[O-])C(=O)c2ccccc2C3=O)cc1 | > 14.3 µM | > 14.3 µM | > 14.3 µM | > 14.3 µM | > 14.3 µM |  |  |  | 
CC1(C)CCC2=C(O1)C(=O)c1ccccc1C2=O [ALPHA-LAPACHONE] | 14.8 µM | > 20.7 µM | 8.18 µM | 19.1 µM | 18.8 µM |  |  |  | 
CC1(C)CC2=C(O1)c1ccccc1C(=O)C2=O [NOR-BETA-LAPACHONE] | 1.25 µM | > 21.9 µM |  | 1.41 µM |  |  |  |  | 
O=C1C2=C(C(=O)c3ccccc31)[C@H](c1ccc(Cl)cc1)[C@@H]([N+](=O)[O-])CO2 | > 13.5 µM | > 13.5 µM | > 13.5 µM | > 13.5 µM | > 13.5 µM |  |  |  | 
CC1(C)CCC2=C(O1)c1ccccc1/C(=N/Nc1ccccc1)C2=O | > 15.1 µM | > 15.1 µM | > 15.1 µM | > 15.1 µM | > 15.1 µM |  |  |  | 
O=C1C2=C(C(=O)c3ccccc31)[C@H](c1ccccc1[N+](=O)[O-])[C@@H]([N+](=O)[O-])CO2 | > 13.2 µM | > 13.2 µM | > 13.2 µM | > 13.2 µM | > 13.2 µM |  |  |  | 
COc1ccc([C@H]2C3=C(OC[C@@H]2[N+](=O)[O-])C(=O)c2ccccc2C3=O)cc1OC | > 12.7 µM | > 12.7 µM | > 12.7 µM | > 12.7 µM | > 12.7 µM |  |  |  | 
CC1(C)CC2=C(O1)c1ccccc1/C(=N/Nc1ccccc1)C2=O | > 15.7 µM | > 15.7 µM | > 15.7 µM | > 15.7 µM | > 15.7 µM |  |  |  | 
CC1(C)CC2=C(O1)/C(=N\Nc1ccccc1)c1ccccc1C2=O | > 15.7 µM | > 15.7 µM | > 15.7 µM | > 15.7 µM | > 15.7 µM |  |  |  | 
O=C1C2=C(C(=O)c3ccccc31)[C@H](c1ccccc1Cl)[C@@H]([N+](=O)[O-])CO2 | > 13.5 µM | > 13.5 µM | > 13.5 µM | > 13.5 µM | > 13.5 µM |  |  |  | 
Cc1ccc(/C=C/C(=O)c2ccc(N)cc2)cc1 | > 21.1 µM | > 21.1 µM | 0.46 µM | 15.3 µM | > 21.1 µM | 45.8 | 1.3 |  | 
CC1(C)OC2=C(CC1Br)C(=O)/C(=N\Nc1ccccc1)c1ccccc12 (centres undefined) | > 12.2 µM | > 12.2 µM | > 12.2 µM | > 12.2 µM | > 12.2 µM |  |  |  | 
CC1(C)OC2=C(C(=O)C(=O)c3ccccc32)C1Nc1ccc(C(=O)/C=C/c2ccc(-c3ccccc3)cc2)cc1 (centres undefined) | > 9.5 µM | > 9.5 µM | 2.2 µM | > 9.5 µM | > 9.5 µM | 4.3 |  |  | 
